Assay results: US7655395B2, “Isolation and use of ryanodine receptors” (E.I. du Pont de Nemours and Company, priority 2002, dated 2010)

Test system: native cockroach ryanodine receptors (in embryonic neuronal cells)
Test: Calcium release assay, calcium imaging of embryonic cockroach neuronal cells (Fluo-4)
Assay type: cell-based, Periplaneta americana
Description: Embryonic neuronal cultures of the American cockroach Periplaneta americana were established, with minor modifications, following the method of Beadle and Lees (1988) (in Cell Culture Approaches to Invertebrate Neuroscience, Academic Press, New York, pp 123-127). Briefly, 26-27-day old oothecae were collected, surface-sterilized and cut open along a line one-third of the distance below the dorsal midline. The heads were removed and placed in Schneider's Drosophila medium (Invitrogen Life Technologies™, Carlsbad, Calif.). Using fine forceps 40 brains were individually removed and placed in a small glass vial containing 700 μl of ‘5+4’ medium (‘5+4’ medium contained 5 parts Schneider's Drosophila medium plus 4 parts roach Basal Medium Eagle, with Earle's salts (BME, Sigma™, St. Louis, Mo.). Roach BME (with Earle's salts) contained 5 parts Hepes (1 M), 1 part penicillin/streptomycin and 44 parts BME (with Earle's salts). ‘5+4’ medium was made fresh and sterile filtered (0.2 μm filter) just prior to use). The brains were dissociated by sequential trituration as follows: 1) brains were passed through a standard Pasteur pipette 10 times; 2) the resulting tissue suspension was passed an additional 5 times through a Pasteur pipet with tip flamed to about half of its original diameter; 3) a final 5 passes were performed using a Pasteur pipet with tip flamed to slightly less than half of its original diameter. A repeat pipettor was used to dispense a 5 μl volume of the resulting suspension into the center of each well of a 96-well, glass-bottom plate previously coated with poly-L-lysine (0.2 mg/ml solution). Cells attached to the bottom of the wells during a 50 min incubation at 27-29° C. 150 ul of a 1:1 mixture of Leibovitz's L-15 medium and Yunker's modified Grace's medium was added, and plates were maintained in a humid incubator at 27-29° C. until use. After cells were allowed to attach wells were filled with a 1:1 mixture of Leibovitz's L-15 medium and Yunker's modified Grace's medium (Leibovitz's L-15 and Grace's medium were obtained from Invitrogen Life Technologies™, Carlsbad, Calif. and Yunker's modified Grace's medium was made with Grace's medium modified by addition of 5 mg L-methionine, 10 mg L-alanine, 182 mg MgCl2.6H20, 1 g Albumin Fraction V, 7 ml Fetal bovine serum, 10 ml Chick embryo extract, 2 ml Penicillin/Streptomycin, and 2 mg 20-hydroxyecdysone (prepared in ethanol prior to addition) to a final volume of 100 ml and sterile filtered (0.2 μm filter)). Cells were maintained in a high humidity incubator at 29° C. until testing.
The calcium imaging and acquisition protocols using roach neuronal cells is as follows:
Cells were rinsed in standard physiological saline having the following composition (mM): NaCl 190; CaCl2 9; KCl 3.1; probenicid 1; Tris buffer 10; pH 7.2. Cells were then bathed in standard physiological saline containing the calcium sensitive fluoroprobe Fluo-4 AM (2 μM) and Pluronic F127 (0.002%) for 45 min. Cells were then rinsed in standard physiological saline for at least 15 min prior to testing. Within the hour prior to testing, standard physiological saline was replaced with standard physiological saline containing the organic cation channel blocker pimozide (10 μM), to inhibit influx of external calcium through voltage-gated calcium channels. The 96-well plate was placed on a Prior™ motorized stage mounted onto a Nikon Diaphot microscope and imaged using a 20× Fluor objective (NA 0.75). Individual wells from the 96-well plate were sequentially excited with light at 495 nm, and the emitted fluorescence at 530 nm was detected using a Hamamatsu ORCA ER digital camera with 2 pixel binning (image size 672×512 pixels).
Acquisition control, image processing and image analysis were conducted using Universal Imaging Corporation's MetaMorph™ imaging software (Universal Imaging, West Chester, Pa.). A series of 3 “control” images were acquired for each well. […]

Row | SMILES | Calcium Release Threshold (nM) P. americana [nM] | Calcium Release (P. americana) (Table 6, result in words)
1 | CNC(=O)c1cc(Cl)cc(C)c1NC(=O)c1cc(Br)nn1-c1ncccc1Cl [Cpd 14] | <300 | 
2 | Cn1c(=O)c2c(ncn2C)n(C)c1=O [Caffeine, reference compound] |  | Agonist
